# Source: patent US5567716A, “Trans and cis traumatic acid salts having cicatrizant activity associated to bacteriostatic, antiviral, antibiotic or antifungal activity” (priority 1992, dated 1996)
# Legend:
# experimental animal = settings: topical route; cited from earlier work
# [1] = test system: psoriatic patients or patients affected by acne, dermatitis seborrheic, neurodermatitis and itches; settings: trachoma, herpetic keratitis, verruca; cited from earlier work
# Balb/C 3T3 fibroblasts = assay: Cell growth of Balb/C 3T3 fibroblasts, crystal violet colorimetry (1.1b); format: cell-based, Mouse; settings: for cell growth t2/t1: 48 h/24 h, control 76.776
# Procedure: Mouse Balb/C 3T3 fibroblasts were grown in DMEM medium supplemented with penicillin (100 units/ml) and streptomycin (0.1 mg/ml). For experimental purposes, cells are routinely inoculated in […] diameter culture dishes (5000cells/dish) and cultured overnight.
# The compounds to be tested are solubilized in DMEM+10%FCS and DMSO to obtain the final concentration of 10^-5 M, 10^-6 M e 10^-7 M in 0.05% DMSO.
# The cells number is measured 4, 24 and 48 hours after seeding. The cell growth is evaluated as t2/t1 ratio (%).
# 3T3 fibroblasts = assay: Cellular proliferation of 3T3 fibroblasts, neutral red colorimetry (1.1a); format: cell-based, Mice
# Procedure: Experiments on 3T3 fibroblasts
# Mice 3T3 fibroblasts cultures sown at a 40.000/ml concentration on plates having 6 wells in a DMEM culture medium enriched with 10% calf serum are used. After 24 hours culture, the 90 prepared wells are divided in order to allow the analyses of the compounds of the invention, every compound to be tested being used respectively at a concentration of 0.1, 1 and 10 μg/ml by subsequent evaluations after 48 and 72 hours of incubation.
# Hexadecyltrimethylammoniun (ETA) traumatare: solubilized in water and brought to the desired final concentrations of 0.1. 1 and 10 μg/ml by progressive dilutions;
# Ethanolamine traumatate: solubilized in water and brought to the final concentrations of 0.1, 1 and 10 μg/ml by progressive dilutions;
# Traumatic acid: neutralized with sodium hydroxyde and solubilized in water, then brought to the final concentrations of 0.1, 1 and 10 μg/ml by progressive dilutions with the culture medium.
# The compounds are added to the cells after 24 hours culture. The cells number is measured by colorimetry with the neutral red intravital stain after 24, 48, 72 hours of incubation.
# man = settings: burns therapy; cited from earlier work
# herpetic keratitis = settings: topic and systemic administration; cited from earlier work
smiles,measurement,setting,value
"O=C(O)/C=C/CCCCCCCCC(=O)O [traumatic acid, 10-dodecendioic]",reepithelializing and antiirritant action,experimental animal,reepithelializing and antiirritant action
same,clinical results,[1],Positive clinical results
same,Cell density,"Balb/C 3T3 fibroblasts; 4 h (t0), 10^-5M, control 0.300",0.478
same,Cell density,"Balb/C 3T3 fibroblasts; 4 h (t0), 10^-6M, control 0.300",0.495
same,Cell density,"Balb/C 3T3 fibroblasts; 4 h (t0), 10^-7M, control 0.300",0.459
same,Cell density,"Balb/C 3T3 fibroblasts; 24 h (t1), 10^-5M, control 0.481",0.317
same,Cell density,"Balb/C 3T3 fibroblasts; 24 h (t1), 10^-6M, control 0.481",0.320
same,Cell density,"Balb/C 3T3 fibroblasts; 24 h (t1), 10^-7M, control 0.481",0.323
same,Cell density,"Balb/C 3T3 fibroblasts; 48 h (t2), 10^-5M, control 0.849",0.657
same,Cell density,"Balb/C 3T3 fibroblasts; 48 h (t2), 10^-6M, control 0.849",0.657
same,Cell density,"Balb/C 3T3 fibroblasts; 48 h (t2), 10^-7M, control 0.849",0.740
same,cell growth t2/t1,Balb/C 3T3 fibroblasts; 10^-5M,112.273%
same,cell growth t2/t1,Balb/C 3T3 fibroblasts; 10^-6M,95.638%
same,cell growth t2/t1,Balb/C 3T3 fibroblasts; 10^-7M,135.554%
same,effect on cells proliferation,"3T3 fibroblasts; 0.1 μg/ml, in words",able to affect cells proliferation according to a not statistically significant trend
same,effect on cellular proliferation,"3T3 fibroblasts; 1 μg/ml, in words, ETA salt > ethanolamine salt = traumatic acid",able to increase cellular proliferation
same,"cells numeration (colorimetric, neutral red)","3T3 fibroblasts; 24 hours of incubation, 0.1 (head: μg/ml), control 0.579 ± 0.021",0.486 ± 0.029
same,"cells numeration (colorimetric, neutral red)","3T3 fibroblasts; 24 hours of incubation, 1.0 (head: μg/ml), control 0.579 ± 0.021",0.510 ± 0.008
same,"cells numeration (colorimetric, neutral red)","3T3 fibroblasts; 24 hours of incubation, 10.0 (head: μg/ml), control 0.579 ± 0.021",0.543 ± 0.019
same,"cells numeration (colorimetric, neutral red)","3T3 fibroblasts; 48 hours of incubation, 0.1 (head: μg/ml), control 1.334 ± 0.050",1.497 ± 0.087
same,"cells numeration (colorimetric, neutral red)","3T3 fibroblasts; 48 hours of incubation, 1.0 (head: μg/ml), control 1.334 ± 0.050",1.431 ± 0.047
same,"cells numeration (colorimetric, neutral red)","3T3 fibroblasts; 48 hours of incubation, 10.0 (head: μg/ml), control 1.334 ± 0.050, ** p < 0.01 significant reduction",1.442 ± 0.060
same,"cells numeration (colorimetric, neutral red)","3T3 fibroblasts; 72 hours of incubation, 0.1 (head: μg/ml), control 2.360 ± 0.125",2.492 ± 0.070
same,"cells numeration (colorimetric, neutral red)","3T3 fibroblasts; 72 hours of incubation, 1.0 (head: μg/ml), control 2.360 ± 0.125",2.349 ± 0.125
same,"cells numeration (colorimetric, neutral red)","3T3 fibroblasts; 72 hours of incubation, 10.0 (head: μg/ml), control 2.360 ± 0.125, ** p < 0.01 significant reduction",2.446 ± 0.128
same,time necessary for the cells to reach the confluence,"3T3 fibroblasts; side control experiment, ETA and ethanolamine salts > traumatic acid",reduce the time normally necessary for the cells to reach the confluence
same,reepithelialization times,man,reduces the reepithelialization times
same,effect on herpetic keratitis model,herpetic keratitis,effectiveness on an in vivo herpetic keratitis model both after topic and systemic administration
